system: human monocytic cell line U937; experiment: Human U937 cellular necroptosis assay; assay type: cell-based; conditions: U-937; U937 cells stimulated with 25 ng/mL human TNFalpha and 25 μM z-VAD-FMK; 22 hr; viability by Cell Titer-Glo 2.0; read-out: hU937 IC50
Summary of the method: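 U937 cells (5000/well) driven to necroptosis by 25 ng/mL human TNFalpha plus 25 μM z-VAD-FMK alongside 1:3-diluted compounds, 22 hr at 37° C, 5% CO2. Viability by CellTiter-Glo luminescence; IC50 from four-parameter logistic fit.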

Structure (SMILES) | IC50 [nM]
Cc1cnc(C(=O)N[C@H]2COc3ccc(Oc4cnn(C)c4)cc3N(C)C2=O)nc1-c1ccc(C#N)cc1 [Example 160, (S)-4-(4-cyanophenyl)-5-methyl-N-(5-methyl-7-((1-methyl-1H-pyrazol-4-yl)oxy)-4-oxo-2,3,4,5-tetrahydrobenzo[b]-[1,4]oxazepin-3-yl)pyrimidine-2-carboxamide] | 24
CN1C(=O)[C@@H](NC(=O)c2ncc(Cl)c(-c3ccc(F)c(F)c3)n2)COc2cc(Cl)cnc21 [Example 97, (S)-5-chloro-N-(8-chloro-5-methyl-4-oxo-2,3,4,5-tetrahydropyrido[3,2-b]-[1,4]oxazepin-3-yl)-4-(3,4-difluorophenyl)pyrimidine-2-carboxamide] | 11
Cc1cccc(-c2nc(C(=O)N[C@H]3COc4cc(Cl)cnc4N(C)C3=O)ncc2Cl)c1 [Example 106, (S)-5-chloro-N-(8-chloro-5-methyl-4-oxo-2,3,4,5-tetrahydropyrido[3,2-b]-[1,4]oxazepin-3-yl)-4-(m-tolyl)-pyrimidine-2-carboxamide] | 14.8
Cc1cnc(C(=O)N[C@H]2COc3cccnc3N(C)C2=O)nc1-c1cccc(F)c1F [Example 59, (S)-4-(2,3-difluorophenyl)-5-methyl-N-(5-methyl-4-oxo-2,3,4,5-tetrahydropyrido[3,2-b]-[1,4]oxazepin-3-yl)pyrimidine-2-carboxamide] | 13.9
Cc1cnc(C(=O)Nc2cccc(Cl)c2F)nc1-c1ccccc1 [Example 18, N-(3-chloro-2-fluorophenyl)-5-methyl-4-phenylpyrimidine-2-carboxamide] | 1890
Cc1ccc(-c2nc(C(=O)N[C@H]3COc4ccc(CN5CCn6ncnc6C5)cc4N(C)C3=O)ncc2Cl)cc1F [Example 153, (S)-5-chloro-N-(7-((5,6-dihydro-[1,2,4]triazolo[1,5-a]pyrazin-7(8H)-yl)methyl)-5-methyl-4-oxo-2,3,4,5-tetrahydrobenzo[b]-[1,4]oxazepin-3-yl)-4-(3-fluoro-4-methylphenyl)pyrimidine-2-carboxamide] | 10
CN1C(=O)[C@@H](NC(=O)c2ncc(Cl)c(-c3ccn4cnnc4c3)n2)COc2cc(Cl)cnc21 [Example 115, (S)-4-([1,2,4]triazolo[4,3-a]pyridin-7-yl)-5-chloro-N-(8-chloro-5-methyl-4-oxo-2,3,4,5-tetrahydropyrido[3,2-b]-[1,4]oxazepin-3-yl)pyrimidine-2-carboxamide] | 330
CN1C(=O)[C@@H](NC(=O)c2ncc(Cl)c(-c3ccc(F)c(F)c3)n2)COc2cc(F)cnc21 [Example 75, (S)-5-chloro-4-(3,4-difluorophenyl)-N-(8-fluoro-5-methyl-4-oxo-2,3,4,5-tetrahydropyrido[3,2-b]-[1,4]oxazepin-3-yl)pyrimidine-2-carboxamide] | 11.9
Cc1cc(F)ccc1-c1ccnc(C(=O)N[C@H]2COc3cc(Cl)cnc3N(C)C2=O)n1 [Example 89, (S)-N-(8-chloro-5-methyl-4-oxo-2,3,4,5-tetrahydro-pyrido[3,2-b][1,4]oxazepin-3-yl)-4-(4-fluoro-2-methylphenyl)pyrimidine-2-carboxamide] | 136
Cc1ncc(-c2nc(C(=O)N[C@H]3COc4cc(Cl)cnc4N(C)C3=O)ncc2Cl)cn1 [Example 110, (S)-5-chloro-N-(8-chloro-5-methyl-4-oxo-2,3,4,5-tetrahydropyrido[3,2-b]-[1,4]oxazepin-3-yl)-2′-methyl-[4,5′-bipyrimidine]-2-carboxamide] | 3560
CN1C(=O)[C@@H](NC(=O)c2ncc(Cl)c(-c3cc(F)ccc3F)n2)COc2ccc(N3CC4(CCOCC4)C3)cc21 [Example 144, (S)-5-chloro-4-(2,5-difluorophenyl)-N-(5-methyl-4-oxo-7-(7-oxa-2-azaspiro[3.5]nonan-2-yl)-2,3,4,5-tetrahydrobenzo[b]-[1,4]oxazepin-3-yl)pyrimidine-2-carboxamide] | 15.8
Cc1cnc(C(=O)N[C@H]2COc3cc(C#N)ccc3N(C)C2=O)nc1-c1cccc(F)c1 [Example 135, (S)-N-(8-cyano-5-methyl-4-oxo-2,3,4,5-tetrahydrobenzo[b]-[1,4]oxazepin-3-yl)-4-(3-fluorophenyl)-5-methylpyrimidine-2-carboxamide] | 17.6
Cc1ccc(-c2nc(C(=O)N[C@H]3COc4cccnc4N(C)C3=O)ncc2C)c(F)c1 [Example 61, (S)-4-(2-fluoro-4-methylphenyl)-5-methyl-N-(5-methyl-4-oxo-2,3,4,5-tetrahydropyrido[3,2-b]-[1,4]oxazepin-3-yl)pyrimidine-2-carboxamide] | 16.1
Cc1ccc(C(=O)N[C@H]2COc3cc(C#N)ccc3N(C)C2=O)nc1-c1ccc(F)cc1 [Example 36, (S)-N-(8-cyano-5-methyl-4-oxo-2,3,4,5-tetrahydro-benzo[b][1,4]oxazepin-3-yl)-6-(4-fluorophenyl)-5-methyl-picolinamide] | 260
CN1C(=O)[C@@H](NC(=O)c2ncc(CN)c(-c3ccccc3)n2)COc2cc(Cl)cnc21 [Example 162, (S)-5-(aminomethyl)-N-(8-chloro-5-methyl-4-oxo-2,3,4,5-tetrahydropyrido[3,2-b][1,4]oxazepin-3-yl)-4-phenylpyrimidine-2-carboxamide] | 122
Cc1cnc(C(=O)NC2CCn3nc(C(F)(F)F)cc3N(C)C2=O)nc1-c1ccccc1 (stereo not shown) [Example 15, 5-methyl-N-(4-methyl-5-oxo-2-(trifluoromethyl)-5,6,7,8-tetrahydro-4H-pyrazolo[1,5-a][1,3]diazepin-6-yl)-4-phenyl-pyrimidine-2-carboxamide] | 498
CN1C(=O)[C@@H](NC(=O)c2ncc(Cl)c(-c3cncc(F)c3)n2)COc2cccnc21 [Example 56, (S)-5-chloro-4-(5-fluoropyridin-3-yl)-N-(5-methyl-4-oxo-2,3,4,5-tetrahydropyrido[3,2-b]-[1,4]oxazepin-3-yl)pyrimidine-2-carboxamide] | 180
CN1C(=O)[C@@H](NC(=O)c2ncc(Cl)c(-c3cc(F)ccc3F)n2)COc2ccc(Oc3cnn(C)c3)cc21 [Example 161, (S)-5-chloro-4-(2,5-difluorophenyl)-N-(5-methyl-7-((1-methyl-1H-pyrazol-4-yl)oxy)-4-oxo-2,3,4,5-tetrahydrobenzo[b]-[1,4]oxazepin-3-yl)pyrimidine-2-carboxamide] | 9
Cc1cnc(C(=O)N[C@H]2CCc3ccccc3NC2=O)nc1-c1ccc(F)c(F)c1 [Example 10, (S)-4-(3,4-difluorophenyl)-5-methyl-N-(2-oxo-2,3,4,5-tetrahydro-1H-benzo[b]azepin-3-yl)pyrimidine-2-carboxamide] | 15.4
CN1C(=O)[C@@H](NC(=O)c2ncc(Cl)c(-c3cccc(C#N)c3)n2)COc2cc(F)cnc21 [Example 84, (S)-5-chloro-4-(3-cyanophenyl)-N-(8-fluoro-5-methyl-4-oxo-2,3,4,5-tetrahydropyrido[3,2-b]-[1,4]oxazepin-3-yl)pyrimidine-2-carboxamide] | 33.5
Cc1ccc(C(=O)Nc2cccc(Cl)c2F)nc1-c1ccccc1 [Example 34, N-(3-chloro-2-fluorophenyl)-5-methyl-6-phenylpicolinamide] | ≥ 10000
O=C(NC1CCc2ccccc2NC1=O)c1ncc(C2CC2)c(-c2ccccc2)n1 (stereo not shown) [Example 2, 5-cyclopropyl-N-(2-oxo-2,3,4,5-tetrahydro-1H-benzo[b]azepin-3-yl)-4-phenylpyrimidine-2-carboxamide] | 509

Reference: patent US12565490B2, “Inhibitors of Receptor Interacting Protein Kinase I for the treatment of disease” (Board of Regents, The University of Texas System, priority 2020, dated 2026)
